From US20210145802A1, “THERAPY FOR OPHTHALMOLOGICAL CONDITIONS” (WREN THERAPEUTICS LIMITED, priority 2018, published 2021) come the findings set out here.

The subject of experiment [1] is CL2331 (Aβ3-42::GFPMuscular worms). The experiment in a line: Automated motility assay, Aβ3-42::GFPMuscular worms. To be noted: compared to untreated worms. Type of experiment: in vivo, C. elegans. The protocol:
CL2331; dvIs37 [myo-3p::GFP::A-Beta (3-42)+rol-6(su1006)] (Aβ3-42::GFPMuscular worms). Maintain at 16 C. Roller. Diffuse and aggregated GFP expression in body wall muscle. Low brood size. Sicker at higher temperatures. (C. D. Link et al., The β amyloid peptide can act as a modular aggregation domain. Neurobiol. Dis. 32, 420-425 (2008));
Briefly, Netoglitazone stocks (5 mM in 100% DMSO) were used at an appropriate concentration to seed 9-cm NGM plates. Plates were then placed in a laminar flow hood at room temperature (22° C.) for up to 4 hours to dry. […]
All C. elegans populations were cultured at 20° C. and developmentally synchronized from a 4 h egg-lay. At 64-72 h post-egg-lay (time zero), individuals were transferred to FUDR plates, and body movements were assessed over the times indicated. At different ages, the animals were washed off the plates with M9 buffer and spread over an OP-50 unseeded 9 cm plate, after which their movements were recorded at 20 fps using a recently developed microscopic procedure (M. Perni et al., Massively parallel C. elegans tracking provides multi-dimensional fingerprints for phenotypic discovery. J. Neurosci. Methods. 306, 57-67 (2018)) for 1 min. Up to 600 animals were counted in each experiment in duplicate unless stated otherwise. […]

Another experiment addresses T1, Aβ42 (Homo sapiens, UniProt P05067).
T1 construct: […]; made in house; host or cells: E. coli BL21 Gold (DE3)
The experiment in a line: ThT kinetic assay of Aβ42 fibril formation (unseeded). The class given is biochemical. The conditions noted are these: 2 μM Aβ42; range of Netoglitazone concentrations; ThT fluorescence. The text has this: The recombinant Aβ(M1-42) peptide ([…]-SNKGAIIGLMVGGVVIA [SEQ ID NO: 1]), here called Aβ42, was expressed in the E. coli BL21 Gold (DE3) strain (Stratagene, CA, U.S.A.) and purified as described previously with slight modifications. Briefly, the purification procedure involved sonication of E. coli cells, dissolution of inclusion bodies in 8 M urea, and ion exchange in batch mode on diethylaminoethyl cellulose resin and lyophylization. The lyophilized fractions were further purified using Superdex 75 HR 26/60 column (GE Healthcare, Buckinghamshire, U.K.) and eluates were analyzed using SDS-PAGE for the presence of the desired protein product. The fractions containing the recombinant protein were combined, frozen using liquid nitrogen, and lyophilized again.
Except for Netoglitazone, which was custom synthesised by GVK BIO, all small molecules were purchased with a purity greater than 99%. Small molecules were first solubilized in 100% DMSO to a concentration of 5 mM, and then diluted in the peptide solution to reach a final DMSO concentration of maximum 1-3%. We verified that the addition of DMSO in the reaction mixture has no effect on Aβ42 aggregation.
Solutions of monomeric peptides were prepared by dissolving the lyophilized Aβ42 peptide in 6 M GuHCl. Monomeric forms were purified from potential oligomeric species and salt using a Superdex 75 10/300 GL column (GE Healthcare) at a flowrate of 0.5 mL/min, and were eluted in 20 mM sodium phosphate buffer, pH 8 supplemented with 200 μM EDTA and 0.02% NaN3. The centre of the peak was collected, and the peptide concentration was determined from the absorbance of the integrated peak area using ε280=1490 L mol^−1 cm^−1. The obtained monomer was diluted with buffer to the desired concentration and supplemented with 20 μM Thioflavin T (ThT) from a 1 mM stock. All samples were prepared in low binding Eppendorf tubes on ice using careful pipetting to avoid introduction of air bubbles. Each sample was then pipetted into multiple wells of a 96-well half-area, low-binding, clear bottom and PEG coating plate (Corning 3881), 80 μL per well. Aβ42 kinetics have been performed in the absence or the presence of Netoglitazone, Mitoglitazone, Rosiglotazone, Rivoglitazone, Pioglitazone, Ciglitazone, Englitazone, Darglitazone, Troglitazone and B alaglitazone.

T1 sequence (P05067 671-713): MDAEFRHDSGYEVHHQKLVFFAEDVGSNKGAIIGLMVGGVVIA

For the compound `O=C1NC(=O)C(Cc2ccc3cc(OCc4ccccc4F)ccc3c2)S1` (centres unmarked) [Netoglitazone], the “motility of Aβ3-42::GFPMuscular worms” value in experiment [1] was “significantly improves the motility”. For the same compound, the “delay in Aβ42 aggregation” value on Aβ42 was “substantial delay”.
